Measured values published in article PMC11375437, “Selective labelling of GBA2 in cells with fluorescent β-D-arabinofuranosyl cyclitol aziridines” (Chemical Science, 2024).

Target: T1, GBA1 (Homo sapiens, UniProt P04062)
T1 construct: endogenous in cells; host or cells: wild-type HEK293T
T1 sequence (P04062 40-536): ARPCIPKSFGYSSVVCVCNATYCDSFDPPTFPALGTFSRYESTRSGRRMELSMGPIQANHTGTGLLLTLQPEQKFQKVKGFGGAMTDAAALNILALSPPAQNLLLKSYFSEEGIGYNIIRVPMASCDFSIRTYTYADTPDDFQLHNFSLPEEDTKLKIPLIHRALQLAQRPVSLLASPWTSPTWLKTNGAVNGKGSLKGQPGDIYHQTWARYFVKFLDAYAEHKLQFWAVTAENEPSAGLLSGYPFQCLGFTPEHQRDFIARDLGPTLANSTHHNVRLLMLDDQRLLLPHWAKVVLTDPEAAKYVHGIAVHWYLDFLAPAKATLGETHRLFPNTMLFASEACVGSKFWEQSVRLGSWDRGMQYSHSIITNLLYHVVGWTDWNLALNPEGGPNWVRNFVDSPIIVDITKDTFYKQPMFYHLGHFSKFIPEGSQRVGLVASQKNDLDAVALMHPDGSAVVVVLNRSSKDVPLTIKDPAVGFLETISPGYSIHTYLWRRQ
Assay: In situ labelling of wild-type HEK293T cells, GBA1
Assay type: cell-based
Conditions: wild-type HEK293T intact cells; for GBA1 labelling in situ: 500 nM, 2.5 h
Protocol: Importantly, the GBA2 selectivity of β-D-Araf ABPs 3–5 was maintained during in situ labelling of wild-type HEK293T cells (ESI Fig. S9 ^†). […] Even after 24 h incubation, similar results were obtained: ABP 4 selectively labelled GBA2 at 10 nM, with only slight concomitant GBA1 labelling at concentrations higher than 100 nM (ESI Fig. S10 ^†). Selective GBA2 labelling by ABP 3 and 4 finally was also observed in human retinal pigment epithelial-1 cells (Fig. 5C).
Figure S9. Fluorescent gel images of in situ labelling of wild-type HEK293T cells by β-D-Araf aziridine ABPs 3-5.
β-D-Araf ABPs were firstly incubated with intact wild-type HEK293T cells for 1 or 2.5 h (1st incubation) and then cells were harvested. Lysis buffers containing different competitors (1 µM ABP or cyclophellitol inhibitor (CP, 1 µM for 150 nM set, 2 µM for 500 nM set)) was added to the harvested cells, cells were lysed, and lysate was incubated on ice for 30 min and additional 30 min at 37 °C (2nd incubation). Labelling of residual β-glucosidases was performed using ABPs 7 (for 3), 8 (for 4), or 9 (for 5) at 500 nM.
Figure S10. Fluorescent gel images of A) intact HEK293T wild-type cells labeled by β-D-Araf aziridine ABPs 3-5. […]
2.13 In situ intact cells labelling and inhibition assays
Confluent HEK293T cells expressing human endogenous GBA1 and GBA2/GBA3 OE, wild-type HEK293T cells or wild-type human retinal pigment epithelial-1 (RPE-1) cells were cultured in 12-well plates for duplicates or triplicates with (or without) compounds (3-5) for the described incubation times using the conditions as described for the cell culture. The cells were harvested as described in the cell lysis method. After determination of the protein concentration by BCA assay, the lysates were adjusted to 10 μL by addition of potassium phosphate buffer in order to normalize the amount of protein loaded (to 10-25 μg total protein per measurement), and subjected to the ABPP as […]
2.14 In situ visualization of GBA2 for confocal microscopy
HEK293T WT, GBA2 overexpression (GBA1 endogenous and GBA2 OE) and GBA1/GBA2 knockout (KO) GBA2 overexpression (GBA1/2 KO GBA2 OE) cells were cultured in DMEM High Glucose (Capricon Scientific) supplemented with 10% fetal calf serum, 1% (v/v) GlutaMax and 0.1% (w/v) penicillin/streptomycin.2,6 Cells were grown to approximately 75% confluence on Ø15 mm glass coverslips coated with 0.1 mg/ml poly-L-Lysine.
Samples were pretreated for 16 h with 100 nM of a GBA1 inhibitor (218, 0.5% DMSO), 500 nM of a GBA1 and GBA2 inhibitor (229, 0.5% DMSO) or with 0.5% DMSO alone. GBA2 was subsequently incubated by the addition of 50 nM ABP 4 (BODIPY-Red) to cells for 2 h at 37 °C with 5% CO2.
Unbound probe was washed away with PBS and cells were fixed with 4% paraformaldehyde (Alfa Aesar)/PBS for 15 min at RT. […]

Row | Structure (SMILES) | GBA1 labelling in situ | Concentrations giving slight concomitant GBA1 labelling in situ (24 h incubation)
1 | CN1/C(=C/C=C/C=C/C2=[N+](CCCCCC(=O)NCc3cn(CCCCCCCCN4[C@@H]5[C@H](CO)[C@@H](O)[C@H](O)[C@@H]54)nn3)c3ccccc3C2(C)C)C(C)(C)c2ccccc21 (stereo partly shown) [ABP 5] | GBA1 labelling only occurred when using a high concentration (500 nM) and longer incubation time (2.5 h) | 
2 | CC1=CC(C)=[N+]2C1=C(CCCCc1cn(CCCCCCCCN3[C@@H]4[C@H](CO)[C@@H](O)[C@H](O)[C@@H]43)nn1)c1c(C)cc(C)n1[B-]2(F)F (stereo partly shown) [ABP 3] | did not visibly label GBA1 | 
3 | COc1ccc(C2=[N+]3C(=C(CCCCc4cn(CCCCCCCCN5[C@@H]6[C@H](CO)[C@@H](O)[C@H](O)[C@@H]65)nn4)c4ccc(-c5ccc(OC)cc5)n4[B-]3(F)F)C=C2)cc1 (stereo partly shown) [ABP 4] | did not visibly label GBA1 | higher than 100 nM
